According to patent US8058295B2, “Cystic fibrosis transmembrane conductance regulator protein inhibitors and uses thereof” (The Regents of the University of California, priority 2002, dated 2011):
Like-named read-outs stand apart in the source and are kept apart here.

Experiments:
[1] = system: Calcium-sensitive Cl^− channels; test: UTP-stimulated Ca^2+-dependent Cl^− secretion, short-circuit current in human bronchial epithelial cells; type: cell-based
Source text: Two non-CFTR Cl^− channels were studied.

[2] = system: Volume-sensitive Cl^− channels; test: Volume-activated Cl^− current, whole-cell patch clamp in FRT cells; type: cell-based, rat; conditions: 5 μM; 250 mosM/kg hypotonic solution
Source text: FIG. 4B is a graphical representation of volume-activated Cl^− current (hypotonic 250 mosM/kg H2O) measured in whole-cell patch clamp experiments on FRT cells.

urea transporter (UT-B) = target: T1, urea transporter (UT-B) (Homo sapiens, UniProt Q13336); test: Urea transporter block; conditions: 5 μM
T1 sequence (Q13336 1-389): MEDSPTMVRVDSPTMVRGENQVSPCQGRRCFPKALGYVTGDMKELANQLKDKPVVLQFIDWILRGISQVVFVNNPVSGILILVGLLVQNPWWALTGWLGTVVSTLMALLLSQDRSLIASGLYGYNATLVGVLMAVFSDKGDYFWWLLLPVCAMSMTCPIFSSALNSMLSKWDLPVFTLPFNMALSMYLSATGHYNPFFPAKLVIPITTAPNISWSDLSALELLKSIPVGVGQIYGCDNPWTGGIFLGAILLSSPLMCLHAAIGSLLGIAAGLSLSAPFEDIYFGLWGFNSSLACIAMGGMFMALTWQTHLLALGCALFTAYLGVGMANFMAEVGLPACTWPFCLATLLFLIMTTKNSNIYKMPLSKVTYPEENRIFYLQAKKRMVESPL

[3] = target: T2, Na^+/H^+ exchanger (NHE3) (Homo sapiens, UniProt P48764); test: Na^+/H^+ exchanger block; conditions: 5 μM
T2 sequence (P48764 26-834): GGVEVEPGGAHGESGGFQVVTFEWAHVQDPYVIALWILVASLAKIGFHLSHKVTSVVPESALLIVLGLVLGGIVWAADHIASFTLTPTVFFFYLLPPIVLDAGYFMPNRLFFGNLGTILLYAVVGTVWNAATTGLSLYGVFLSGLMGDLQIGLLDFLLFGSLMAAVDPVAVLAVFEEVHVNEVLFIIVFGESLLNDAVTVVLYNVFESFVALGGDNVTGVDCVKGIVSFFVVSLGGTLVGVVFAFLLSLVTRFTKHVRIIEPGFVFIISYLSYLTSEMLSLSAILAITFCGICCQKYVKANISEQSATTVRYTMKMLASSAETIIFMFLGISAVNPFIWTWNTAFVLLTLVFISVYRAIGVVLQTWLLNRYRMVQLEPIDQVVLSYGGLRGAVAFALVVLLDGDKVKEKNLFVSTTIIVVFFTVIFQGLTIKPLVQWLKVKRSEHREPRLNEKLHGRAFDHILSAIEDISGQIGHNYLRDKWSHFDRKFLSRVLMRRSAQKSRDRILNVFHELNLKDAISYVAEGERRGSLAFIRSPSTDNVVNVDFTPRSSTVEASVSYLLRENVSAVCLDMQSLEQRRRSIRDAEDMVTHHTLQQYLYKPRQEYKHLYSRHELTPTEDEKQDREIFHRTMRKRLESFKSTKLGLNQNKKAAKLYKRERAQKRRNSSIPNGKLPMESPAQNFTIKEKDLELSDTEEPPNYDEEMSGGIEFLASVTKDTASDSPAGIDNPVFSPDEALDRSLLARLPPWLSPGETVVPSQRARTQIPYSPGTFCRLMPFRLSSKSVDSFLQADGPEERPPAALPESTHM

phosphatase activity = test: Phosphatase assay; type: cell-based; conditions: 5 μM
FRT cells = test: Cell toxicity by dihydrorhodamine method; type: cell-based, rat; conditions: dihydrorhodamine assay, after 24 hours
CFTR Cl^− channel = target: T3, CFTR Cl^− channel (Rattus norvegicus, UniProt P34158); test: Short-circuit current in isolated rat colonic mucosa; conditions: 5 μM to the mucosal solution alone, after amiloride and forskolin 20 μM
T3 construct: from tissue; host or cells: rat colon mucosa

[4] = Pharmacokinetic analysis in rats after intravenous bolus; type: in vivo
Description: A bolus of ^14C-CFTRinh-172 (50 μCi) in PBS containing 3% DMSO (titrated to pH 7.4 using NaOH) was administered intravenously in rats over 1 min (male Sprague-Dawley rats, 360-420 grams) by an indwelling jugular catheter. Blood was collected from the catheter at specified times. ^14C-Radioactivity was determined in plasma (isolated by centrifugation of whole blood at 14,000 g for 10 min) by scintillation counting (Scintiverse SE, Fisher, Calif.) using a LS-6500 Multi-Purpose Scintillation Counter (Beckman). Pharmacokinetic analysis was done using WinNonLin software (Pharsight). Rats were sacrificed by pentobarbital overdose after collection of the final blood/tissue samples. All animal procedures were approved by the UCSF Committee on Animal Research.

[5] = Analysis of inhibitor metabolism by thin layer chromatography and autoradiography; type: in vivo, mice; conditions: urine, serum, bile, liver homogenate; TLC autoradiography
Source text: Film was exposed for autoradiography for 48 hr (left panel) and 12 hr (right panel).
Aliquots of bodily fluids (plasma, urine, bile) and liver homogenate were spotted onto Silica plates and resolved by thin layer chromatography using a ethyl acetate:hexane:methanol (1:1:0.1) solvent system which gave rf ˜0.5 for the original inhibitor.

CFTR [6] = target: T4, CFTR (Mus musculus, UniProt P26361); test: Short-circuit current in mouse ileum
T4 construct: from tissue; host or cells: mouse ileum (wildtype CD1 mice)

CFTR [7] = target: T5, CFTR (Homo sapiens, UniProt P13569); test: Short-circuit current in T84 colonic epithelial cells
CFTR [8] = target: T5, CFTR
wildtype CFTR = wildtype CFTR (Homo sapiens, UniProt P13569); test: YFP fluorescence assay of CFTR-mediated I^− transport in FRT cells; type: cell-based; set-up: expressed in transfected cells; host or cells: Fischer rat thyroid (FRT) cells
[9] = rat, i.v. bolus, 2-compartment model

T5 sequence (P13569 whole entry): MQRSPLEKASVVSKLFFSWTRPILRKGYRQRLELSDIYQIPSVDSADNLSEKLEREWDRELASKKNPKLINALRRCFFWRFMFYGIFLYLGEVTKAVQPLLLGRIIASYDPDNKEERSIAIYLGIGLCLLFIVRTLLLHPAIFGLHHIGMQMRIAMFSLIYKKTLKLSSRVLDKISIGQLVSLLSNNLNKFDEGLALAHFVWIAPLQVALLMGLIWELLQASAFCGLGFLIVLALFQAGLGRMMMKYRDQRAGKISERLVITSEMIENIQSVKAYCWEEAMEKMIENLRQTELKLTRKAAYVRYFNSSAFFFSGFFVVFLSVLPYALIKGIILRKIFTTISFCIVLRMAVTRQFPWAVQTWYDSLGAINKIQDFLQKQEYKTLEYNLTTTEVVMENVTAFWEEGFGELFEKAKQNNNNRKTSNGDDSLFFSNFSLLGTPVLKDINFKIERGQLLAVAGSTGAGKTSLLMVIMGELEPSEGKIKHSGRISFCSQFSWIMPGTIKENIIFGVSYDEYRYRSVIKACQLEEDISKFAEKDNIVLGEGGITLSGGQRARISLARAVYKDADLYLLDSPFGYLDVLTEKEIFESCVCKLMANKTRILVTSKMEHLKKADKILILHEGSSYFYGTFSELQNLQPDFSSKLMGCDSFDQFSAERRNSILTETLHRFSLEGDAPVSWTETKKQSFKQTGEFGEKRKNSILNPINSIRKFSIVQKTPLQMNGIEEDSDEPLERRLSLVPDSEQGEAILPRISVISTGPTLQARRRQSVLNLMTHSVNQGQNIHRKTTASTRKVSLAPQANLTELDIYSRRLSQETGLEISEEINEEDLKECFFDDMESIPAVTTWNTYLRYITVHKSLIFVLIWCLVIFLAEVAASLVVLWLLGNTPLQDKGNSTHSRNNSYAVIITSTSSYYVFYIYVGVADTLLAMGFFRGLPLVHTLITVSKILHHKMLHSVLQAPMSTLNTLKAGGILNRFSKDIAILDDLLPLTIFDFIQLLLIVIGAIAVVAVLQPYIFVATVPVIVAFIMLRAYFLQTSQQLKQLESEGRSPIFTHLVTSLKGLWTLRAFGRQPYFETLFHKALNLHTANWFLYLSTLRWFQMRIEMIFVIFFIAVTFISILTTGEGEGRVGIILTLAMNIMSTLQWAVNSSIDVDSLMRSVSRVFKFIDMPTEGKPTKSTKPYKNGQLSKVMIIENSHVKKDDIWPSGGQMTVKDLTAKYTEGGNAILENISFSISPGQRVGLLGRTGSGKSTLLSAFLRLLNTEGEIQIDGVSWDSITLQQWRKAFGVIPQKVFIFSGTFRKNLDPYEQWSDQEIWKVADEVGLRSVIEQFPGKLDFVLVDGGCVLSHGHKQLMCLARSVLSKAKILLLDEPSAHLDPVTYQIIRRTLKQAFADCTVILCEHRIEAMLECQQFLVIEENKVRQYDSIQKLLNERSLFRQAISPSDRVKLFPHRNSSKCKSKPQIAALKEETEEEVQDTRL
wildtype CFTR, sequence (P13569 whole entry): as above
T4 sequence (P26361 whole entry): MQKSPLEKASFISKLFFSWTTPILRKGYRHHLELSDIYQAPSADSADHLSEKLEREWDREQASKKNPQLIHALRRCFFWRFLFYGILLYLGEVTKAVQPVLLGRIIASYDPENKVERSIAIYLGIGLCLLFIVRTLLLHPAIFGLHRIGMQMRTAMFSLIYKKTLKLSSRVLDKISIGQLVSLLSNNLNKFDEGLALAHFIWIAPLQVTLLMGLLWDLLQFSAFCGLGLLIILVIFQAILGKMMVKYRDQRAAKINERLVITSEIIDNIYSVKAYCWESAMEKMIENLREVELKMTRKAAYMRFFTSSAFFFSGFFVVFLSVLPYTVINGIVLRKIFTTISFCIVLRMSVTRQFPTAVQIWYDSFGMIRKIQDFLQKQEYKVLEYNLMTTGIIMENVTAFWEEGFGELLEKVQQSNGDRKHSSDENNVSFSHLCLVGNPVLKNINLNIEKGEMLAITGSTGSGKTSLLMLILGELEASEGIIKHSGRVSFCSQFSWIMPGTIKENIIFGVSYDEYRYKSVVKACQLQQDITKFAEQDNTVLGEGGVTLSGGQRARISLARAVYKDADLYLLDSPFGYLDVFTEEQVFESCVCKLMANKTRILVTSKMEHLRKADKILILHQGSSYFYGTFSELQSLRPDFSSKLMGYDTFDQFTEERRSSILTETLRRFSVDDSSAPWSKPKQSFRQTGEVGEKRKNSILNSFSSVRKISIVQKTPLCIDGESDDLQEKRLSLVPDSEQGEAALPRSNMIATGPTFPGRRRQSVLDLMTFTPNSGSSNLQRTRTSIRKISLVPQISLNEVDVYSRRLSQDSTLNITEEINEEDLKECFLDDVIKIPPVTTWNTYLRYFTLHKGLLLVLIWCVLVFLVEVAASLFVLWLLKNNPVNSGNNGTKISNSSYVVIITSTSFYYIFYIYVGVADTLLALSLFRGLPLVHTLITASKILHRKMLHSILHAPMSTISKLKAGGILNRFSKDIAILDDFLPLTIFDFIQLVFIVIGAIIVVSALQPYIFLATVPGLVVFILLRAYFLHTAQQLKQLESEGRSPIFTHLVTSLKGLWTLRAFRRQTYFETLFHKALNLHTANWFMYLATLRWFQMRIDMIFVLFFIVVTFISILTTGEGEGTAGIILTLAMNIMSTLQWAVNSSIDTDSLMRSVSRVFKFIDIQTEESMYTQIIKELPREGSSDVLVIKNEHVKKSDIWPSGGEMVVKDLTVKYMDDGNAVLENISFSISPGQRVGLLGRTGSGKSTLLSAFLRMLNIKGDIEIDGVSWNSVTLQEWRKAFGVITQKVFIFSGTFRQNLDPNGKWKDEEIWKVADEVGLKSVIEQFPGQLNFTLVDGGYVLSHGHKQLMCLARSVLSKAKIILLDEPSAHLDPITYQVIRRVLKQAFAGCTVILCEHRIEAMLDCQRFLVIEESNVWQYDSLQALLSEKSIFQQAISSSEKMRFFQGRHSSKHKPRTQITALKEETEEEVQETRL
T3 sequence (P34158 whole entry): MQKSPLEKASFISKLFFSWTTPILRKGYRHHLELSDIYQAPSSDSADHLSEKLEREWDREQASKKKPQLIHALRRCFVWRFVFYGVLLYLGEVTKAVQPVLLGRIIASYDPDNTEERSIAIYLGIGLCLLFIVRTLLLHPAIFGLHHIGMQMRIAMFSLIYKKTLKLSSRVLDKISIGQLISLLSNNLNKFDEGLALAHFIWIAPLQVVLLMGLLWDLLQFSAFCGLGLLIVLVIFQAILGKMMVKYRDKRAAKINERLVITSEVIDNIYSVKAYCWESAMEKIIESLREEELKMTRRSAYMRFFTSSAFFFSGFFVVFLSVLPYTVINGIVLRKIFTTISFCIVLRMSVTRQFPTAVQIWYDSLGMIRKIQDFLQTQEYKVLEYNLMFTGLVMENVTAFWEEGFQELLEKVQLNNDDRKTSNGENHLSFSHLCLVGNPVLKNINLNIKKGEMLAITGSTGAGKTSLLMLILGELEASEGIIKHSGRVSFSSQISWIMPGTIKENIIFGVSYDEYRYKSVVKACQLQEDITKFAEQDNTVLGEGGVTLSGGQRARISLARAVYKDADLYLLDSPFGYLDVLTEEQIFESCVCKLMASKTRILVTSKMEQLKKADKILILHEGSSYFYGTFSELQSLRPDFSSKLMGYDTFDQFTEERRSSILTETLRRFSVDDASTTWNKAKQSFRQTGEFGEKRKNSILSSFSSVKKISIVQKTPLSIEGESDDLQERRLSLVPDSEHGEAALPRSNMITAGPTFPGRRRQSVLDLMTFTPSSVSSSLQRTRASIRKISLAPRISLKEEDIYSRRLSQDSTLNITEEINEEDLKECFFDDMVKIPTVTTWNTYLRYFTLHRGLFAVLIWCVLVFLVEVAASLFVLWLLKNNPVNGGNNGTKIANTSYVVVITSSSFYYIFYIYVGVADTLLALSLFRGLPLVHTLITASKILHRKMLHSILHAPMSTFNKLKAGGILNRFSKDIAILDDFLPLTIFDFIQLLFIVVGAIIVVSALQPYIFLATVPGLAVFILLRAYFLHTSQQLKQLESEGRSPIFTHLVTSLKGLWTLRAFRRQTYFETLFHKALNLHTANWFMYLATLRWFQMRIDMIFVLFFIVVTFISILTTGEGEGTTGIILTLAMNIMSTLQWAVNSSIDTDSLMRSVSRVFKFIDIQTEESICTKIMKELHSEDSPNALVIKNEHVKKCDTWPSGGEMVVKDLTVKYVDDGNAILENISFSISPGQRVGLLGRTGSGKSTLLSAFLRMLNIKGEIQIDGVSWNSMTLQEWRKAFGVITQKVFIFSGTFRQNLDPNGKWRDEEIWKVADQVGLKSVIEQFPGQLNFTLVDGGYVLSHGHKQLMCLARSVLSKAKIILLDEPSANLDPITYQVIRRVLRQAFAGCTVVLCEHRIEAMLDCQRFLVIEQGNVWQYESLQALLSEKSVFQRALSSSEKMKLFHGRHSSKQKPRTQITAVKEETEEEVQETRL

With `O=C(O)c1ccc(/C=C2\SC(=S)N(c3cccc(C(F)(F)F)c3)C2=O)cc1` [CFTRinh-172, 3-[(3-trifluoromethyl)phenyl]-5-[(4-carboxyphenyl)methylene]-2-thioxo-4-thiazolidinone] the “inhibition of Ca^2+ activated secretion” value ([1]; 5 μM, UTP 100 μM) was “did not inhibit”, the “maximal UTP-dependent short-circuit current” value ([1]; in presence of 5 μM inhibitor (SE, n=4)) was 10.0±0.2 μA/cm^2 and the “block of volume-activated Cl^− currents” value [2] was “did not block”. The “block of urea transporter (UT-B)” value (urea transporter (UT-B)) was “did not block”, the “block of Na^+/H^+ exchanger (NHE3)” value [3] was “did not block” and the “effect on phosphatase activity” value (phosphatase activity) was “did not affect”. The “concentration non-toxic to FRT cells” value (FRT cells) was “up to 100 μM”, the “reduction of short-circuit current” value (CFTR Cl^− channel) was greater than 80% and the detection in plasma ([4]; 72 hr after administration) was “No ^14C-labeled CFTRinh-172 was detected”. For the same compound, the “detection in liver or kidney homogenates” value ([4]; 14 days after administration) was “No ^14C-labeled CFTRinh-172 was detected”, the “area under curve (AUC)” value [4, 9] was 3.8 µg·h/mL and the clearance [4, 9] was 99 mL/h. The elimination half-time [4, 9] was 10.3 h, the maximum serum concentration [4, 9] was 3.2 µg/mL and the redistribution half-time [4, 9] was 0.14 h. The volume of distribution [4, 9] was 1.2 L, the “chemical modification (metabolism)” value [5] was “did not occur” and the IC50 (CFTR [6]; forskolin (cAMP-dependent chloride secretion), read-out: concentration for fifty percent inhibition of short-circuit current) was roughly 5 µM. The IC50 (CFTR [6]; intact intestine, read-out: apparent potency for inhibition of intestinal short-circuit current) was 2 to 5 µM, the IC50 (CFTR [7]) was roughly 3 µM and the Ki (CFTR [7]; KI, cells depolarized by high-K^+ basolateral solution) was roughly 0.3 µM. It also gave a Ki (CFTR [7]; apparent KI, after basolateral permeabilization with amphotericin B, Cl^− gradient) of 0.3 µM, a Ki (CFTR [7]; apparent KI, non-permeabilized T84 cells) of roughly 3 µM and an IC50 (CFTR [8]) of 0.2 to 0.5 µM. For the same compound, the Kd (CFTR [8]) was roughly 0.3 µM, the Hill coefficient (CFTR [8]; dose-inhibition of short-circuit current) was roughly 1 and the “inhibition of CFTR activation by other agonists” value (wildtype CFTR; 5 μM inhibitor, genistein, CPT-cAMP, CPX, 8-MPO, UCCF-029, UCCF-853 (all 50 μM)) was “effectively inhibited”. For the same compound, the t1/2 of inhibition (wildtype CFTR; after addition of 2 μM) was 4 min, the “time to complete inhibition” value (wildtype CFTR; after addition of 2 μM) was roughly 10 min and the “t1/2 of inhibition reversal after washout” value (wildtype CFTR; washout of 1 μM) was roughly 5 min.
